The test system of the series is rodent carcinogenicity bioassays, tumor incidence. Briefly: CCRIS carcinogenicity studies. The conditions noted are these: Dose: 0, Dose: 0. The method in brief:
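NCI-built, expert-reviewed records of carcinogenicity and related test outcomes (mutagenicity, tumor promotion/inhibition) compiled from published and report sources, historical span 1985-2011, not updated.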

Calls of active or inactive are those of the source. No rule for the calls is given here.

With `C[C@]12CC[C@@H]3c4ccc(OC(=O)Cc5ccc(N(CCCl)CCCl)cc5)cc4CC[C@H]3[C@@H]1CC[C@@H]2OC(=O)Cc1ccc(N(CCCl)CCCl)cc1`, the carcinogen call is, setting by setting: (Species: MOUSE, Strain/Sex: B6C3F1/FEMALE, Route: GAVAGE, 15, 30 MG/KG 3/WK FOR 52 WKS, 15, 30 MG/KG 3/WK FOR 52 WKS, Tumor Site: Type of Lesion: LUNG: ALVEOLAR/BRONCHIOLAR ADENOMA OR CARCINOMA, LYMPHATIC SYSTEM: LYMPHOMA, MYOCARDIUM: SARCOMA, STOMACH, Tumor Site: Type of Lesion: LUNG: ALVEOLAR/BRONCHIOLAR ADENOMA OR CARCINOMA, LYMPHATIC SYSTEM: LYMPHOMA, MYOCARDIUM: SARCOMA, STOMACH) “active; positive”; (Species: MOUSE, Strain/Sex: B6C3F1/MALE, Route: GAVAGE, 15, 30 MG/KG 3/WK FOR 52 WKS, 15, 30 MG/KG 3/WK FOR 52 WKS, Tumor Site: Type of Lesion: LUNG: ALVEOLAR/BRONCHIOLAR ADENOMA OR CARCINOMA, HEMATOPOIETIC SYSTEM (LEUKEMIA): LYMPHOCYTIC LEUKEMIA, LYMPHATIC SYSTEM, Tumor Site: Type of Lesion: LUNG: ALVEOLAR/BRONCHIOLAR ADENOMA OR CARCINOMA, HEMATOPOIETIC SYSTEM (LEUKEMIA): LYMPHOCYTIC LEUKEMIA, LYMPHATIC SYSTEM) “active; positive”; (Species: RAT, Strain/Sex: SPRAGUE-DAWLEY/FEMALE, Route: GAVAGE, 0.62, 1.25 MG/KG IN 0.05% POLYSORB 80 IN PHOS BUFF SALINE 3/WK FOR 52 WK, 0.62, 1.25 MG/KG IN 0.05% POLYSORB 80 IN PHOS BUFF SALINE 3/WK FOR 52 WK) “inactive; negative”; (Species: RAT, Strain/Sex: SPRAGUE-DAWLEY/MALE, Route: GAVAGE, 0.62, 1.25 MG/KG IN 0.05% POLYSORB 80 IN PHOS BUFF SALINE 3/WK FOR 52 WK, 0.62, 1.25 MG/KG IN 0.05% POLYSORB 80 IN PHOS BUFF SALINE 3/WK FOR 52 WK) “inactive; negative”.

Consider `CCSC(=O)N(CC(C)C)CC(C)C`, for which the carcinogen call by setting is: (Species: Mouse, Strain/Sex: CD-1/Female (50/sex/group), Route: Oral, 20, 80, 320 mg/kg/d in diet for 2 yrs, 20, 80, 320 mg/kg/d in diet for 2 yrs) “inactive; negative; probable purity of 97-98%”; (Species: Mouse, Strain/Sex: CD-1/Male (50/sex/group), Route: Oral, 20, 80, 320 mg/kg/d in diet for 2 yrs, 20, 80, 320 mg/kg/d in diet for 2 yrs) “inactive; negative; probable purity of 97-98%”; (Species: Rat, Strain/Sex: Sprague-Dawley/Female (70/sex/group), Route: Oral, 50, 100, 200, 400 mg/kg/d in diet for 12, 18, or 24 mo, 50, 100, 200, 400 mg/kg/d in diet for 12, 18, or 24 mo) “inactive; negative; probable purity of 97-98% (there were probably 10 animals in each inte”; (Species: Rat, Strain/Sex: Sprague-Dawley/Male (70/sex/group), Route: Oral, 50, 100, 200, 400 mg/kg/d in diet for 12, 18, or 24 mo, 50, 100, 200, 400 mg/kg/d in diet for 12, 18, or 24 mo) “inactive; negative; probable purity of 97-98% (there were probably 10 animals in each inte”.

Take `Cc1ccnc2ccccc12`: the carcinogen call reads like this: (Species: MOUSE, Strain/Sex: CD-1/FEMALE, Route: INTRAPERITONEAL, 0.25, 0.5, 1.0 UMOL IN DMSO TO NEWBORN MICE ON DAYS 1, 8 AND 15 OF LIFE RESPECTIVELY (TOTAL DOSE: 1.75 UMOL) (STUDY D, 0.25, 0.5, 1.0 UMOL IN DMSO TO NEWBORN MICE ON DAYS 1, 8 AND 15 OF LIFE RESPECTIVELY (TOTAL DOSE: 1.75 UMOL) (STUDY D) “inactive; negative”; (Species: MOUSE, Strain/Sex: CD-1/MALE, Route: INTRAPERITONEAL, 0.25, 0.5, 1.0 UMOL IN DMSO TO NEWBORN MICE ON DAY 1,8 AND 15 OF LIFE RESPECTIVELY (TOTAL DOSE: 1.75 UMOL) (STUDY DUR, 0.25, 0.5, 1.0 UMOL IN DMSO TO NEWBORN MICE ON DAY 1,8 AND 15 OF LIFE RESPECTIVELY (TOTAL DOSE: 1.75 UMOL) (STUDY DUR, Tumor Site: Type of Lesion: LIVER: ADENOMA, HEPATOMA) “active; positive”; (Species: RAT, Strain/Sex: SPRAGUE-DAWLEY/FEMALE, Route: SUBCUTANEOUS, 200 UMOL/KG INTO SUPRASCAPULAR REGION ON DAY 1 OF LIFE FOLLOWED BY 0, 100 UMOL 1/WK AT WK 2-7 THEN 0, 200 UMOL ONCE A, 200 UMOL/KG INTO SUPRASCAPULAR REGION ON DAY 1 OF LIFE FOLLOWED BY 0, 100 UMOL 1/WK AT WK 2-7 THEN 0, 200 UMOL ONCE A) “inactive; negative”; (Species: RAT, Strain/Sex: SPRAGUE-DAWLEY/MALE, Route: SUBCUTANEOUS, 200 UMOL/KG INTO SUPRASCAPULAR REGION ON DAY 1 OF LIFE FOLLOWED BY 0, 100 UMOL 1/WK AT WK 2-7 THEN 0, 200 UMOL ONCE A, 200 UMOL/KG INTO SUPRASCAPULAR REGION ON DAY 1 OF LIFE FOLLOWED BY 0, 100 UMOL 1/WK AT WK 2-7 THEN 0, 200 UMOL ONCE A) “inactive; negative”.
